Measurements reported in BindingDB's records for doi:10.1021/jm0706867 (St. Jude Research Hospital, 2007).

Biological target: CES2 (Homo sapiens, UniProt O00748)
Test: Enzyme Inhibition Assay
Conditions: pH 7.4; 25 °C
Protocol: CE inhibition was determined using a spectrophotometric multiwell plate assay with o-NPA as a substrate. The rate of change in absorbance at 420 nm was measured at 15 sec intervals for 5 min and compared to wells containing no inhibitor. […] Further analysis of inhibitors was performed in condition that inhibitor concentrations ranged from 1 pM to 100 uM. Data were fitted to the equation. Examination of curve fits to identify the best model for enzyme inhibition. Ki values were then calculated from the equation predicted by Prism to be the best fit for the experimental data.

Chain of CES2 (O00748 whole entry, looked up): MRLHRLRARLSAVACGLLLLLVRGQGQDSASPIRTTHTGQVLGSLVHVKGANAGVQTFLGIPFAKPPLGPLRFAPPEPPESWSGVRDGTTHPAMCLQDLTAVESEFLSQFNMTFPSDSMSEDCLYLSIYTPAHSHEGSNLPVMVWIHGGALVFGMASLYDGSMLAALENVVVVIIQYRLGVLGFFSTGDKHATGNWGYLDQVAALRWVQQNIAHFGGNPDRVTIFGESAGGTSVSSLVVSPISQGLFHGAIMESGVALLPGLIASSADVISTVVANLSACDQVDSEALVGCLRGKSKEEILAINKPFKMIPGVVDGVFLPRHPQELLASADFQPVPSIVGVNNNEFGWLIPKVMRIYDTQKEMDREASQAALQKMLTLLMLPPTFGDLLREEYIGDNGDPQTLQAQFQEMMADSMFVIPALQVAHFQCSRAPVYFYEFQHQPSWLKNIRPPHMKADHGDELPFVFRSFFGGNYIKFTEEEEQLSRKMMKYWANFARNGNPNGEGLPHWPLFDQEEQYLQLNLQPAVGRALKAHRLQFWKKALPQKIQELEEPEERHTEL

Structure (SMILES)	Ki [µM]
COc1ccccc1C(=O)C(=O)c1ccccc1OC [1,2-bis(2-methoxyphenyl)ethane-1,2-dione]	> 100
O=C1C(=O)c2cccnc2-c2ncccc21 [5,6-dihydro-1=10-phenantroline-5,6-dione]	> 100
O=C1C(=O)c2cccc3c2N(CCC3)C1=O [1-azatricyclo[7.3.1.0^{5,13}]trideca-5,7,9(13)-triene-2,3,4-trione]	> 100
